From patent publication US7485651B2, “Compounds with activity on muscarinic receptors” (Acadia Pharmaceuticals, Inc., priority 1998, dated 2009)

Biological target: T1, m5 receptor (Homo sapiens, UniProt P08912)
T1 construct: expressed in transfected cells; host or cells: NIH 3T3 (ATCC CRL 1658)
T1 sequence (P08912 1-532): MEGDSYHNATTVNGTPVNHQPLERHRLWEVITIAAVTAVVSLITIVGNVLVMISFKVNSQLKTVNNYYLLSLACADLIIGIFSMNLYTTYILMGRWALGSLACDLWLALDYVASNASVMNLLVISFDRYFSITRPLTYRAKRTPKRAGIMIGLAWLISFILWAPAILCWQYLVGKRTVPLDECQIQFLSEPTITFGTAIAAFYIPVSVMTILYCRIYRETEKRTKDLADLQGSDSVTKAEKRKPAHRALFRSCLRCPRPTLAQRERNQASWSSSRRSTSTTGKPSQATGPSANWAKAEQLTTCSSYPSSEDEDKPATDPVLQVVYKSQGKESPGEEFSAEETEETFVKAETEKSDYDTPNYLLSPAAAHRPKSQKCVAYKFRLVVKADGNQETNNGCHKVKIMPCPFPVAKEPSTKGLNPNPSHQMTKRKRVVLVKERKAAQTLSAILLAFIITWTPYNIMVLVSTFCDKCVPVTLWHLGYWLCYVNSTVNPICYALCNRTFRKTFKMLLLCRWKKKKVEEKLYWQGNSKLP
Assay: R-SAT / NIH 3T3 cells transfected with m5 muscarinic receptor
Assay type: cell-based
Text: A particularly convenient functional assay system is the receptor selection and amplification assay disclosed in U.S. Pat. No. 5,707,798 describing a method of screening for bioactive compounds by utilizing the ability of cells transfected with receptor DNA, e.g. coding for the different muscarinic subtypes, to amplify in the presence of a ligand of the receptor. Cell amplification is detected as increased levels of a marker also expressed by the cells.
Transfection of cells with muscarinic receptor DNAs (general procedure) NIH 3T3 cells (available from the American Type Culture Collection as ATCC CRL 1658) were grown at 37° C. in a humidified atmosphere (5% CO2) incubator in Dulbecco's modified Eagle's medium (DMEM) supplemented with 4.5 g/l glucose, 4 mM glutamine, 50 units/m1 penicillin, 50 units/m1 streptomycin (available from Advanced Biotechnologies, Inc., Gaithersburg, Md.) and 10% calf serum (available from Sigma, St. Louis, […].). The cells were treated with trypsin-EDTA, spun down and plated at 2×10^6 per 15 cm dish in 20 m1 of DMEM containing 10% calf serum.
The m1-m5 muscarinic receptor subtypes were cloned substantially as described by Bonner et al., Science 237, 1987, p. 527, and Bonner et al., Neuron 1, 1988, p. 403. For the m2 and m4 receptors, the cells were co-transfected with DNA encoding a chimera between the Gq protein and the five carboxy-terminal amino acids of the Gi protein (the Gq-i5 construct is described by Conklin et al., Nature 363, 1993, p.274).
On day one, the cells were transfected using the Superfect transfection reagent (available from Qiagen, Valencia, Calif.) in accordance with the manufacturer's instructions. Receptor DNA, β-gal DNA (pSI-β-galactosidase available from Promega, Madison, Wis.), chimeric Gq-i5 DNA for the m2 and m4 receptor subtype assays, and salmon sperm DNA (available from Sigma, St. Louis, […].) as filler to a total of 20 μg DNA was added per plate. Prior to addition to the plates, 60 μl Superfect was added to the DNA and mixed thoroughly by pipetting up and down several times. The mixture was incubated at room temperature for 10-15 minutes. The media were aspirated, and 12 ml fresh DMEM containing 10% calf serum and 50 units/m1 penicillin/streptomycin was added to the plates. The DNA-Superfect solution was mixed once more with a pipette and added to the plate which was swirled to distribute the DNA mixture evenly over the surface. The cells were incubated overnight at 37° C. and 5% CO2. After incubation, the media were aspirated and the plates were rinsed once with a 15 m1 volume of Hank's Buffered Saline. The plates were swirled to ensure thorough rinsing. 20 m1 fresh DMEM supplemented with 10% calf serum and 50 units/m1 penicillin/streptomycin was added to the plates. The cells were incubated for 24-48 hours until the plates were 100% confluent.
Assay of NIH 3T3 cells transfected with muscarinic receptor subtypes (general procedure) DMEM containing 2% Cyto-SF3 was heated at 37° C. in a water bath under sterile conditions. Sterile working stock solutions of test compounds to be assayed were prepared by diluting the compounds in DMEM to 8× the final concentration for testing. The compound (carbachol) to be included in the assay as a positive control was also diluted in DMEM to 8× the final concentration. 50 μL of the DMEM containing 2% Cyto-SF3 was added to each well of 96-well microtiter plates under sterile conditions. Then, 16 of compound solutions were added to the top wells of the plates, and dilution of the solutions was performed by taking 16 μl of the compound solutions from the top wells and pipetting them into the next row of wells. This procedure was repeated with each subsequent row of wells, except that 50 μl medium alone was added to the baseline control wells (the wells that contain medium and cells, but not test compounds) and plate control wells (wells containing medium, but not test compounds and cells). […]

CCCCC1CCN(CCCC(=O)c2ccccc2C)CC1 [Compound A, 4-n-Butyl-1-[4-(2-methylphenyl)-4-oxo-1-butyl]piperidine]
agonist activity at the m5 receptor: only activated the m1 receptor subtype | Emax at 1.5 µM (NIH3T3, m5, compound at 1.5 μM, maximum = response to 10 μM carbachol, read-out: Cellular response as a percentage of the maximum response of the cells): 3% | antagonism of carbachol-induced responses (m5): not an antagonist
